In US20110086834A1, “ALKYNYL ALCOHOLS AS KINASE INHIBITORS” (AMGEN INC., priority 2008, published 2011):
pIC50, pKi: −log10 of the molar value.

Molecular target: T1, NIK (Homo sapiens, UniProt Q99558)
T1 construct: Both assays utilize a truncated form of NIK containing only the catalytic domain; made in house; host or cells: baculovirus expression system (insect cells implied)
Test: homogenous time resolved fluorescence (HTRF) assay for NIK Ki measurement
Format: biochemical
Conditions: not given

T1 sequence (Q99558 400-655 limits assumed): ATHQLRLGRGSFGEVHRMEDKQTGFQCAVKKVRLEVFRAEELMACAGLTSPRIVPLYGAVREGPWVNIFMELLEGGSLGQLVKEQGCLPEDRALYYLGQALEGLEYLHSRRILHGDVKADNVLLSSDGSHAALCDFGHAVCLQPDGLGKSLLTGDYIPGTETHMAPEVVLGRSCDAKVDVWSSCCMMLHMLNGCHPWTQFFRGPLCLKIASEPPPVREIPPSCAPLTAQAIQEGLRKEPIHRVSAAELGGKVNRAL

Row | pKi | Structure (SMILES)
1 | > 6.00 | Cc1cnc(C(C)(O)C#Cc2ccc3c(c2)N(c2ccnc(N)n2)CC3)o1 (centres unmarked) [Example 316, 4-(1-(2-Amino-4-pyrimidinyl)-2,3-dihydro-1H-indol-6-yl)-2-(5-methyl-1,3-oxazol-2-yl)-3-Butyn-2-ol]

Same assay, conditions: truncated NIK (catalytic domain only), autophosphorylation; 10 nM enzyme; 20, 100, 200 or 500 μM ATP; room temperature, 2 hours; read-out: Ki activity in the homogenous time resolved fluorescence (HTRF) assay for NIK

Row | pKi | Structure (SMILES)
2 | > 6.00 | CC(O)(C#Cc1ccc2c(c1)N(c1ncncc1Cl)CC2(C)C)c1nccs1 (centres unmarked) [Example 312, 4-(1-(5-chloro-4-pyrimidinyl)-3,3-dimethyl-2,3-dihydro-1H-indol-6-yl)-2-(1,3-thiazol-2-yl)-3-butyn-2-ol]
3 | 4.52 to 6.00 | CC(O)(C#Cc1ccc2c(c1)N(c1ccncc1Cl)CC2(C)C)c1nccs1 (centres unmarked) [Example 313, 4-(1-(3-Chloro-4-pyridinyl)-3,3-dimethyl-2,3-dihydro-1H-indol-6-yl)-2-(1,3-thiazol-2-yl)-3-butyn-2-ol]
4 | > 6.00 | CC(O)(C#Cc1ccc2c(c1)N(c1ccncc1Cl)CC2(C)C)c1ncco1 (centres unmarked) [Example 314, 4-(1-(3-chloro-4-pyridinyl)-3,3-dimethyl-2,3-dihydro-1H-indol-6-yl)-2-(1,3-oxazol-2-yl)-3-butyn-2-ol]
5 | > 6.00 | CC(O)(C#Cc1cccc(Oc2nc(N)ncc2Cl)c1)c1nccs1 (centres unmarked) [Example 315, 4-(3-((2-amino-5-chloro-4-pyrimidinyl)oxy)phenyl)-2-(1,3-thiazol-2-yl)-3-butyn-2-ol]
6 | > 6.00 | CC(O)(C#Cc1ccc2c(c1)N(c1nc(N)ncc1Cl)CC21CCCC1)c1nccs1 (centres unmarked) [Example 317, 4-(1′-(2-amino-5-chloro-4-pyrimidinyl)-1′,2′-dihydrospiro[cyclopentane-1,3′-indol]-6′-yl)-2-(1,3-thiazol-2-yl)-3-Butyn-2-ol]
7 | > 6.00 | C[C@@](O)(C#Cc1ccc2c(c1)N(c1nc(N)ncc1Cl)CC21CCCC1)c1nccs1 [Example 318]
8 | > 6.00 | CC(O)(C#Cc1ccc2c(c1)N(c1nc(N)ncc1Cl)CC21CCCC1)c1ncco1 (centres unmarked) [Example 319, 4-(1′-(2-Amino-5-chloro-4-pyrimidinyl)-1′,2′-dihydrospiro[cyclopentane-1,3′-indol]-6′-yl)-2-(1,3-oxazol-2-yl)-3-butyn-2-ol]

Molecular target: T1, NIK
Test: chemiluminescent (CL) assay for NIK IC50 determination
Format: biochemical
Conditions: truncated NIK (catalytic domain only), autophosphorylation; 50 nM biotinylated-NIK; 50 μM ATP; room temperature, 1 hour
Experimental: Two formats of biochemical assays are implemented: (1) chemiluminescent (CL) assay for NIK IC50 determination; (2) homogenous time resolved fluorescence (HTRF) assay for NIK Ki measurement. […] The NIK proteins are purified with baculovirus expression system and further biotinylated with N-hydroxysuccinamide biotin ester (Sigma). […] The reaction mixtures are then immobilized on a Streptavidin-coated plate (Pierce). […] For the HTRF assay, 10 nM of enzyme are incubated with compounds in the presence of 20, 100, 200, or 500 μM of ATP in a buffer with 20 mM of Hepes pH7.5, 20 mM of MgCl2, 0.2% of Tween 20 and 1 mM of DTT at room temperature for 2 hours.

Row | pIC50 | Structure (SMILES)
9 | > 6.00 | CN1CCC2(C1)CN(c1ccnc(N)n1)c1cc(C#CC3(O)CCCC3)ccc12 (racemic) [Example 189, (rac)-1-((1-(2-Amino-4-pyrimidinyl)-1′-methyl-1,2-dihydrospiro[indole-3,3′-pyrrolidin]-6-yl)ethynyl)cyclopentanol]
10 | > 6.00 | CC1(CCO)CN(c2nc(N)ncc2Cl)c2cc(C#CC3(O)CCCC3)ccc21 (centres unmarked) [Example 51, 1-((1-(2-amino-5-chloro-4-pyrimidinyl)-3-(2-hydroxyethyl)-3-methyl-2,3-dihydro-1H-indol-6-yl)ethynyl)cyclopentanol]
11 | > 6.00 | COCCn1cc(-c2nc(N)ncc2Cl)c2cc(C#CC(C)(O)c3nccs3)ccc21 (centres unmarked) [Example 115, 4-(3-(2-amino-5-chloropyrimidin-4-yl)-1-(2-methoxyethyl)-1H-indol-5-yl)-2-(thiazol-2-yl)but-3-yn-2-ol]
12 | > 6.00 | Nc1ncc(Cl)c(-c2cn(C(=O)c3cccnc3)c3ccc(C#CC4(O)CCCC4)cc23)n1 [Example 123, (3-(2-amino-5-chloropyrimidin-4-yl)-5-(2-(1-hydroxycyclopentyl)ethynyl)-1H-indol-1-yl)(pyridin-3-yl)methanone]
13 | > 6.00 | Nc1ncc(Cl)c(-c2cn(C3CCOC3)c3ccc(C#CC4(O)CCCC4)cc23)n1 (centres unmarked) [Example 138, 1-(2-(3-(2-amino-5-chloropyrimidin-4-yl)-1-(tetrahydrofuran-3-yl)-1H-indol-5-yl)ethynyl)cyclopentanol]
14 | > 6.00 | COCCn1cc(-c2nc(N)ncc2Cl)c2cc(C#CC3(O)CC[C@@H](C)C3)ccc21 (stereo partly drawn) [Example 140, (3R)-1-(2-(3-(2-amino-5-chloropyrimidin-4-yl)-1-(2-methoxyethyl)-1H-indol-5-yl)ethynyl)-3-methylcyclopentanol]
15 | > 6.00 | COCCOc1cnc(N)nc1-c1c[nH]c2ccc(C#CC(O)(c3ccccc3)C(F)(F)F)cc12 (centres unmarked) [Example 235, 4-(3-(2-Amino-5-(2-methoxyethoxy)-4-pyrimidinyl)-1H-indol-5-yl)-1,1,1-trifluoro-2-phenyl-3-butyn-2-ol]
16 | > 6.00 | O=C(c1ccc(Nc2nccc(N3CCc4ccc(C#CC5(O)CCCC5)cc43)n2)cc1)N1CCOCC1 [Example 263, 1-((1-(2-((4-(4-morpholinylcarbonyl)phenyl)amino)-4-pyrimidinyl)-2,3-dihydro-1H-indol-6-yl)ethynyl)cyclopentanol]
17 | > 6.00 | CC(O)(C#Cc1ccc2c(c1)N(c1nc(N)ncc1Cl)CC2)c1nccs1 (centres unmarked) [Example 286, 4-(1-(2-Amino-5-chloro-4-pyrimidinyl)-2,3-dihydro-1H-indol-6-yl)-2-(1,3-thiazol-2-yl)-3-Butyn-2-ol]
